In patent US6811790B1, “Storage stable pesticide formulations containing azadirachtin” (E.I.D. Parry (India) Ltd., priority 2000, dated 2004):
Like-named read-outs stand apart in the source and are kept apart here.

How the values were obtained:
[1] = 25 days at 29+/−1° C., cited from earlier work
[2] = Stability of azadirachtin A in a formulation, accelerated storage test and real time conditions; type: physicochemical
Method: The behavior of azadirachtin in real time and in accelerated conditions (especially at 54° C.) is quite different.

## C/C=C(\C)C(=O)O[C@H]1C[C@@H](OC(C)=O)[C@@]2(C(=O)OC)CO[C@H]3[C@@H](O)[C@@](C)([C@]45O[C@@]4(C)[C@@H]4C[C@H]5O[C@@H]5OC=C[C@@]54O)[C@H]4[C@]1(CO[C@]4(O)C(=O)OC)[C@@H]32 [azadirachtin A]
[1]; in ethanol and water
  degradation of azadirachtin A: about 80%
[1]; in methanol and acetone
  degradation of azadirachtin A: 50%
[1]; in methylene chloride, carbon tetrachloride and chloroform
  degradation of azadirachtin A: 75-80%
[2]; accelerated storage test at 54° C., after 14 days
  degradation of azadirachtin A: 66%
[2]; real time conditions at 20° C.
  degradation of azadirachtin A per month: approximately 0.9 % per month
  total degradation of azadirachtin A per year: 11 % per year
